Here are results for 17 compounds from US12441726B2, “Compounds and uses thereof” (Foghorn Therapeutics Inc., priority 2020, dated 2025).

One may read the IC50 as the concentration that gives 50% inhibition. A lower IC50 goes with greater potency in that assay.

Structures are written as SMILES.

The target in the first test is BRM (Homo sapiens, UniProt P51531). As to the kind of experiment: ATPase catalytic activity assay (ADP-Glo), BRM. The settings on record: 30 nM BRM, 400 μM ATP.
Sequence of BRM (P51531 whole entry): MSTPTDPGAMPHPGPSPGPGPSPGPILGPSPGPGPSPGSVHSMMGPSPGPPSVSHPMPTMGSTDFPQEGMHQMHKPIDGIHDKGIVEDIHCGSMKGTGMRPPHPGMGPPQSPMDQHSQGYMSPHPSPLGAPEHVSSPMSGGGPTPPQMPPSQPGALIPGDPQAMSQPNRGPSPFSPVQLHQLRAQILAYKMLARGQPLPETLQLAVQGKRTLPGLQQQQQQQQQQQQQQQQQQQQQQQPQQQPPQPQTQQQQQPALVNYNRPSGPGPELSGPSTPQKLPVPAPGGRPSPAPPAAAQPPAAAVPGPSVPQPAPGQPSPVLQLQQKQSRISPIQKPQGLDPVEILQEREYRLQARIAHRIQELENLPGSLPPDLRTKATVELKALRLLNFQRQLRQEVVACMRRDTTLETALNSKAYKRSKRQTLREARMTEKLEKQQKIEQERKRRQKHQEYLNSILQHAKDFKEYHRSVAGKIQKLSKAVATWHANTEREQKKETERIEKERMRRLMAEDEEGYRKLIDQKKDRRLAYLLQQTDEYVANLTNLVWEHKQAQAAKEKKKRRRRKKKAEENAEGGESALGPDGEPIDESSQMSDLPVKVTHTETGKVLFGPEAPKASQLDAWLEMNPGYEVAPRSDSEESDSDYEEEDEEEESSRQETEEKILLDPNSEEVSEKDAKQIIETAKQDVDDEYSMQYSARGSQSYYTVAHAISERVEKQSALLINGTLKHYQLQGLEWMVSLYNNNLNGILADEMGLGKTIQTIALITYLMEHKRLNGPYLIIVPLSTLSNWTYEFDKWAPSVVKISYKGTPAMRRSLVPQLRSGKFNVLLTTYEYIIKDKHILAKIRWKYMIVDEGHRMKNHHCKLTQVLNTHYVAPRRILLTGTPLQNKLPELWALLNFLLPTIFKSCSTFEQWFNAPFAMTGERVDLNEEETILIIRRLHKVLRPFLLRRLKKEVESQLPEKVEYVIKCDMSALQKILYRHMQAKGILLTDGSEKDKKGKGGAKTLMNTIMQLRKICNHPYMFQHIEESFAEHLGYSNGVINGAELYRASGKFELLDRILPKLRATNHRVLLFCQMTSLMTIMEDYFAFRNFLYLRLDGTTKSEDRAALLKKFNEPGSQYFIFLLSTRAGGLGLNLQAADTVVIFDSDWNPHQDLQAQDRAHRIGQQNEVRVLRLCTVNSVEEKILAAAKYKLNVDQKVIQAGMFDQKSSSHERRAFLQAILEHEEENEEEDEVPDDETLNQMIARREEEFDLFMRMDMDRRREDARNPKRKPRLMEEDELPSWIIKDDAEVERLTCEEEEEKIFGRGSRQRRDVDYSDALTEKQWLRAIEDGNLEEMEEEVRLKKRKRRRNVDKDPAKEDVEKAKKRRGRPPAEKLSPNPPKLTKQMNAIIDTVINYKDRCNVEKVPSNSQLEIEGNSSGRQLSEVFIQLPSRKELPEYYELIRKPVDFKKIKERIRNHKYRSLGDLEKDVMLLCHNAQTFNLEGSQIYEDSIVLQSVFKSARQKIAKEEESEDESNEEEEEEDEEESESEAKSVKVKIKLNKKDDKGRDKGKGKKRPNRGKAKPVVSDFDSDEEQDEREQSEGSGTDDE
For `C[C@@]1(C#N)COCc2ccc(C(=O)NCc3cc4nc(N5CCCN(C6CCC6)C5=O)ccc4cn3)cc21` [Compound 350], the “BRM Max % Inhibition” value came out at 96%.
As for `C[C@@]1(C#N)COCc2ccc(C(=O)NCc3cc4nc(-c5cccc(C6(O)CC6)n5)ccc4cn3)cc21` [Compound 384], the “BRM Max % Inhibition” value came to 101%.
As to `C[C@@]1(F)COCc2ccc(C(=O)NCc3cc4nc(-c5cccc(C6(O)COC6)n5)ccc4cn3)cc21` [Compound 160], the “BRM Max % Inhibition” value came to 93%.
On to `CC(C)(O)C#Cc1cccc(-c2ccc3cnc(CNC(=O)c4ccc5c(c4)[C@](C)(C#N)COC5)cc3n2)n1` [Compound 170], for which the “BRM Max % Inhibition” value is given as 96%.
Take `C[C@@]1(F)COCc2ncc(C(=O)NCc3cc4nc(-c5ccnc(N6CCC6)n5)sc4cn3)cc21` [Compound 244]: the “BRM Max % Inhibition” value is 88%.
On to `COc1nn(C2CCC2)cc1-c1ccc2cnc(CNC(=O)c3ccc4c(c3)[C@](C)(C#N)COC4)cc2n1` [Compound 200], for which the “BRM Max % Inhibition” value was found to be 97%.
`CN1CCC(c2cccc(-c3ccc4cnc(CNC(=O)c5ccc6c(c5)[C@](C)(C#N)COC6)cc4n3)n2)CC1` [Compound 131]: the “BRM Max % Inhibition” value was found to be 83%.
As to `CN(C)c1nccc(N2CCc3cnc(CNC(=O)c4ccc5c(c4)[C@](C)(C#N)COC5)cc3C2)n1` [Compound 326], the “BRM Max % Inhibition” value was determined as 97%.
For `C[C@@H]1CN(c2nccc(-c3ccc4cnc(CNC(=O)c5ccc6c(c5)[C@](C)(C#N)COC6)cc4n3)n2)CCO1` [Compound 362], the “BRM Max % Inhibition” value worked out at 99%.
In the case of `C[C@@]1(F)COCc2ncc(C(=O)NCc3cc4nc(-c5cncc(N6CCC6)n5)ccc4cn3)cc21` [Compound 395], the “BRM Max % Inhibition” value worked out at 92%.
In the case of `C[C@@]1(C#N)COCc2ccc(C(=O)NCc3cc(N4CCc5ccccc5C4)cnn3)cc21` [Compound 75], the “BRM Max % Inhibition” value amounted to 97%.
With `C[C@@H]1COCCN1c1nccc(-c2ccc3cnc(CNC(=O)c4ccc5c(c4)[C@](C)(C#N)COC5)cc3n2)n1` [Compound 363], the “BRM Max % Inhibition” value is recorded as 98%.
Turning to `C[C@@]1(C#N)COCc2ccc(C(=O)NCc3cc4c(cn3)CCN(c3cncc(N5CCOCC5)n3)C4)cc21` [Compound 314], the “BRM Max % Inhibition” value is on record as 96%.
`COCCN1CCN(c2cccc(-c3ccc4cnc(CNC(=O)c5ccc6c(c5)[C@](C)(C#N)COC6)cc4n3)n2)CC1` [Compound 132]: the “BRM Max % Inhibition” value is recorded as 97%.
In the case of `C[C@@]1(F)COCc2ccc(C(=O)NCc3cc4nc(-c5ccc(=O)n(C6CC6)n5)ccc4cn3)cc21` [Compound 233], the “BRM Max % Inhibition” value was 98%.
As to `C[C@@]1(CO)COCc2ccc(C(=O)NCc3cc4nc(-c5ccccc5)sc4cn3)cc21` [Compound 115], the “BRM Max % Inhibition” value stood at 84%.
As to `Cn1ncc2ccc(-c3ccc4cnc(CNC(=O)c5ccc6c(c5)[C@](C)(C#N)COC6)cc4n3)cc2c1=O` [Compound 448], the “BRM Max % Inhibition” value is on record as 97%.

The same test, now with this note: BRM ATPase: IC50 (uM), 30 nM BRM, 400 μM ATP.
`C[C@@]1(C#N)COCc2ccc(C(=O)NCc3cc4nc(N5CCCN(C6CCC6)C5=O)ccc4cn3)cc21` [Compound 350]: the IC50 is 0.1 to 0.5 µM.
The compound `C[C@@]1(C#N)COCc2ccc(C(=O)NCc3cc4nc(-c5cccc(C6(O)CC6)n5)ccc4cn3)cc21` [Compound 384] gave an IC50 of less than 0.1 µM.
Turning to `C[C@@]1(F)COCc2ccc(C(=O)NCc3cc4nc(-c5cccc(C6(O)COC6)n5)ccc4cn3)cc21` [Compound 160], the IC50 was 0.1 to 0.5 µM.
The same measure, in the same setting: for `CC(C)(O)C#Cc1cccc(-c2ccc3cnc(CNC(=O)c4ccc5c(c4)[C@](C)(C#N)COC5)cc3n2)n1` [Compound 170] the value was 0.1 to 0.5 µM; for `C[C@@]1(F)COCc2ncc(C(=O)NCc3cc4nc(-c5ccnc(N6CCC6)n5)sc4cn3)cc21` [Compound 244], 0.1 to 0.5 µM.
Same read-out and setting: the result for `COc1nn(C2CCC2)cc1-c1ccc2cnc(CNC(=O)c3ccc4c(c3)[C@](C)(C#N)COC4)cc2n1` [Compound 200] reads 0.1 to 0.5 µM; that for `CN1CCC(c2cccc(-c3ccc4cnc(CNC(=O)c5ccc6c(c5)[C@](C)(C#N)COC6)cc4n3)n2)CC1` [Compound 131], 0.1 to 0.5 µM.
As to `CN(C)c1nccc(N2CCc3cnc(CNC(=O)c4ccc5c(c4)[C@](C)(C#N)COC5)cc3C2)n1` [Compound 326], the IC50 was 0.1 to 0.5 µM.
Same read-out and setting: the result for `C[C@@H]1CN(c2nccc(-c3ccc4cnc(CNC(=O)c5ccc6c(c5)[C@](C)(C#N)COC6)cc4n3)n2)CCO1` [Compound 362] reads less than 0.1 µM; that for `C[C@@]1(F)COCc2ncc(C(=O)NCc3cc4nc(-c5cncc(N6CCC6)n5)ccc4cn3)cc21` [Compound 395], 0.1 to 0.5 µM.
With `C[C@@]1(C#N)COCc2ccc(C(=O)NCc3cc(N4CCc5ccccc5C4)cnn3)cc21` [Compound 75], the IC50 lay in the range of 0.1 to 0.5 µM.
Regarding `C[C@@H]1COCCN1c1nccc(-c2ccc3cnc(CNC(=O)c4ccc5c(c4)[C@](C)(C#N)COC5)cc3n2)n1` [Compound 363], the IC50 was less than 0.1 µM.
On to `C[C@@]1(C#N)COCc2ccc(C(=O)NCc3cc4c(cn3)CCN(c3cncc(N5CCOCC5)n3)C4)cc21` [Compound 314], for which the IC50 is less than 0.1 µM.
The same measure, in the same setting: for `COCCN1CCN(c2cccc(-c3ccc4cnc(CNC(=O)c5ccc6c(c5)[C@](C)(C#N)COC6)cc4n3)n2)CC1` [Compound 132] the value was 0.1 to 0.5 µM; for `C[C@@]1(F)COCc2ccc(C(=O)NCc3cc4nc(-c5ccc(=O)n(C6CC6)n5)ccc4cn3)cc21` [Compound 233], 0.1 to 0.5 µM.
As to `C[C@@]1(CO)COCc2ccc(C(=O)NCc3cc4nc(-c5ccccc5)sc4cn3)cc21` [Compound 115], the IC50 is more than 1 µM.
Compound `Cn1ncc2ccc(-c3ccc4cnc(CNC(=O)c5ccc6c(c5)[C@](C)(C#N)COC6)cc4n3)cc2c1=O` [Compound 448] registered a concentration for half-maximal inhibition (IC50) of less than 0.1 µM.

For a further test, the target named is BRG-1 (Homo sapiens, UniProt P51532). Nature of the test: ATPase catalytic activity assay (ADP-Glo), BRG-1.
Sequence of BRG-1 (P51532 whole entry): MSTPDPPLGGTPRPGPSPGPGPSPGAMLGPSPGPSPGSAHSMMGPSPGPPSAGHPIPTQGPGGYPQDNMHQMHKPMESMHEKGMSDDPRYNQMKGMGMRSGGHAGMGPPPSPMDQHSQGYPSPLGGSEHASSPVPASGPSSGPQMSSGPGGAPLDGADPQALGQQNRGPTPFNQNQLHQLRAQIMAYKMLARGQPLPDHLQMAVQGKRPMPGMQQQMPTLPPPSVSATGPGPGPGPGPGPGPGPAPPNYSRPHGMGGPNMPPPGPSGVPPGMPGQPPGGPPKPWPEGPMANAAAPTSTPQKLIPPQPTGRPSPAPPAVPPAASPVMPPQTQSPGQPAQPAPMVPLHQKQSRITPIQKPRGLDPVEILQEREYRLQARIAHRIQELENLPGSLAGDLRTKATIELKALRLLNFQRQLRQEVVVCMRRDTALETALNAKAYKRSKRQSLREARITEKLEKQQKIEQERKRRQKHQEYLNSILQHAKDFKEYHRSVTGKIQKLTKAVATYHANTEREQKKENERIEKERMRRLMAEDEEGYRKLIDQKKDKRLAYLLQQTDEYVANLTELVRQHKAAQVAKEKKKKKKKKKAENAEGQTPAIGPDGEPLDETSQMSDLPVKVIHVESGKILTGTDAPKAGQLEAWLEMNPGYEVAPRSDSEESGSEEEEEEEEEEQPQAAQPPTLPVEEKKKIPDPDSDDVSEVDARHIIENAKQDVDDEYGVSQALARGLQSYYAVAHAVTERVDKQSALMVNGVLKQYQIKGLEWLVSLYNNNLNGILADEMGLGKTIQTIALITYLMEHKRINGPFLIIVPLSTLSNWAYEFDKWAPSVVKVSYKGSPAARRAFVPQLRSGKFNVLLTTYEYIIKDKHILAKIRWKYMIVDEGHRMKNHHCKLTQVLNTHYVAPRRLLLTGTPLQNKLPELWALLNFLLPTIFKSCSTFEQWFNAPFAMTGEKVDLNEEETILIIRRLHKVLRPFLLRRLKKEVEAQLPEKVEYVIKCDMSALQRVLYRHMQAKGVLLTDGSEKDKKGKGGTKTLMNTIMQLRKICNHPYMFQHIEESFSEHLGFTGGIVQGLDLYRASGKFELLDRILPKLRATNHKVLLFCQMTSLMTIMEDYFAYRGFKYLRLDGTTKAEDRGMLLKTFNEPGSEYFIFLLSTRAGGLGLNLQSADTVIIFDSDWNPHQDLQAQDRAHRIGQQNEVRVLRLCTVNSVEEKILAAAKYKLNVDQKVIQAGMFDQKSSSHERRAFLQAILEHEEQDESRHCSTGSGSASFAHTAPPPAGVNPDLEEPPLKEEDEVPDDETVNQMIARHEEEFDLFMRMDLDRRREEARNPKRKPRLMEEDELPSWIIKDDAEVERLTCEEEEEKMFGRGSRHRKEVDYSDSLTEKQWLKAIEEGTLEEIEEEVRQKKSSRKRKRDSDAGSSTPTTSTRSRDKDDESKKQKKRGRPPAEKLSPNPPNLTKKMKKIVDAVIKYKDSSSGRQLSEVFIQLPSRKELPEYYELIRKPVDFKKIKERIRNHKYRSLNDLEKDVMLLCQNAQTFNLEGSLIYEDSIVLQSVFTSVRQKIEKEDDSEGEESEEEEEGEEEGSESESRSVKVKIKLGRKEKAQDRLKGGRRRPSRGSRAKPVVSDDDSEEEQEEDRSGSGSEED
Conditions: not given
A general note: ADP-Glo turns the ADP formed in a reaction into a luminescent signal.
The compound `C[C@@]1(C#N)COCc2ccc(C(=O)NCc3cc4nc(N5CCCN(C6CCC6)C5=O)ccc4cn3)cc21` [Compound 350] displayed an IC50 of more than 1000 nM.
`C[C@@]1(C#N)COCc2ccc(C(=O)NCc3cc4nc(-c5cccc(C6(O)CC6)n5)ccc4cn3)cc21` [Compound 384] displayed an IC50 of less than 100 nM.
Consider `C[C@@]1(F)COCc2ccc(C(=O)NCc3cc4nc(-c5cccc(C6(O)COC6)n5)ccc4cn3)cc21` [Compound 160], for which the IC50 was in the range of 500 to 1000 nM.
Still for that read-out and setting: for `CC(C)(O)C#Cc1cccc(-c2ccc3cnc(CNC(=O)c4ccc5c(c4)[C@](C)(C#N)COC5)cc3n2)n1` [Compound 170] the value was 500 to 1000 nM.
Turning to `C[C@@]1(F)COCc2ncc(C(=O)NCc3cc4nc(-c5ccnc(N6CCC6)n5)sc4cn3)cc21` [Compound 244], the IC50 is more than 1000 nM.
`COc1nn(C2CCC2)cc1-c1ccc2cnc(CNC(=O)c3ccc4c(c3)[C@](C)(C#N)COC4)cc2n1` [Compound 200] had an IC50 of 500 to 1000 nM.
`CN1CCC(c2cccc(-c3ccc4cnc(CNC(=O)c5ccc6c(c5)[C@](C)(C#N)COC6)cc4n3)n2)CC1` [Compound 131]: the IC50 was more than 1000 nM.
As to `CN(C)c1nccc(N2CCc3cnc(CNC(=O)c4ccc5c(c4)[C@](C)(C#N)COC5)cc3C2)n1` [Compound 326], the IC50 is 500 to 1000 nM.
`C[C@@H]1CN(c2nccc(-c3ccc4cnc(CNC(=O)c5ccc6c(c5)[C@](C)(C#N)COC6)cc4n3)n2)CCO1` [Compound 362] yielded an IC50 of more than 1000 nM.
For the compound `C[C@@]1(F)COCc2ncc(C(=O)NCc3cc4nc(-c5cncc(N6CCC6)n5)ccc4cn3)cc21` [Compound 395], the IC50 was 500 to 1000 nM.
Turning to `C[C@@]1(C#N)COCc2ccc(C(=O)NCc3cc(N4CCc5ccccc5C4)cnn3)cc21` [Compound 75], the IC50 is 500 to 1000 nM.
In turn, `C[C@@H]1COCCN1c1nccc(-c2ccc3cnc(CNC(=O)c4ccc5c(c4)[C@](C)(C#N)COC5)cc3n2)n1` [Compound 363] had an IC50 of 100 to 500 nM.
For the compound `C[C@@]1(C#N)COCc2ccc(C(=O)NCc3cc4c(cn3)CCN(c3cncc(N5CCOCC5)n3)C4)cc21` [Compound 314], the IC50 fell in the range of 100 to 500 nM.
In turn, `COCCN1CCN(c2cccc(-c3ccc4cnc(CNC(=O)c5ccc6c(c5)[C@](C)(C#N)COC6)cc4n3)n2)CC1` [Compound 132] returned an IC50 of 500 to 1000 nM.
The compound `C[C@@]1(F)COCc2ccc(C(=O)NCc3cc4nc(-c5ccc(=O)n(C6CC6)n5)ccc4cn3)cc21` [Compound 233] displayed an IC50 of 500 to 1000 nM.
`C[C@@]1(CO)COCc2ccc(C(=O)NCc3cc4nc(-c5ccccc5)sc4cn3)cc21` [Compound 115] had an IC50 of more than 1000 nM.
For the compound `Cn1ncc2ccc(-c3ccc4cnc(CNC(=O)c5ccc6c(c5)[C@](C)(C#N)COC6)cc4n3)cc2c1=O` [Compound 448], the IC50 lay in the range of 100 to 500 nM.

Still in this test, the particulars now being: 1 h, read-out: BRG1 Max % Inhibition, ADP-Glo, 30 nM BRG-1, 400 μM ATP.
Turning to `C[C@@]1(C#N)COCc2ccc(C(=O)NCc3cc4nc(N5CCCN(C6CCC6)C5=O)ccc4cn3)cc21` [Compound 350], the Emax was determined as 54%.
With `C[C@@]1(C#N)COCc2ccc(C(=O)NCc3cc4nc(-c5cccc(C6(O)CC6)n5)ccc4cn3)cc21` [Compound 384], the Emax turned out to be 100%.
As for `C[C@@]1(F)COCc2ccc(C(=O)NCc3cc4nc(-c5cccc(C6(O)COC6)n5)ccc4cn3)cc21` [Compound 160], the Emax was 62%.
For `CC(C)(O)C#Cc1cccc(-c2ccc3cnc(CNC(=O)c4ccc5c(c4)[C@](C)(C#N)COC5)cc3n2)n1` [Compound 170], the Emax came to 80%.
Regarding `C[C@@]1(F)COCc2ncc(C(=O)NCc3cc4nc(-c5ccnc(N6CCC6)n5)sc4cn3)cc21` [Compound 244], the Emax came to 25%.
With `COc1nn(C2CCC2)cc1-c1ccc2cnc(CNC(=O)c3ccc4c(c3)[C@](C)(C#N)COC4)cc2n1` [Compound 200], the Emax turned out to be 71%.
For `CN1CCC(c2cccc(-c3ccc4cnc(CNC(=O)c5ccc6c(c5)[C@](C)(C#N)COC6)cc4n3)n2)CC1` [Compound 131], the Emax was found to be 25%.
Regarding `CN(C)c1nccc(N2CCc3cnc(CNC(=O)c4ccc5c(c4)[C@](C)(C#N)COC5)cc3C2)n1` [Compound 326], the Emax was found to be 70%.
As to `C[C@@H]1CN(c2nccc(-c3ccc4cnc(CNC(=O)c5ccc6c(c5)[C@](C)(C#N)COC6)cc4n3)n2)CCO1` [Compound 362], the Emax is 98%.
For the compound `C[C@@]1(F)COCc2ncc(C(=O)NCc3cc4nc(-c5cncc(N6CCC6)n5)ccc4cn3)cc21` [Compound 395], the Emax was found to be 62%.
With `C[C@@]1(C#N)COCc2ccc(C(=O)NCc3cc(N4CCc5ccccc5C4)cnn3)cc21` [Compound 75], the Emax is 54%.
With `C[C@@H]1COCCN1c1nccc(-c2ccc3cnc(CNC(=O)c4ccc5c(c4)[C@](C)(C#N)COC5)cc3n2)n1` [Compound 363], the Emax is 94%.
On the same count and under the same terms, for `C[C@@]1(C#N)COCc2ccc(C(=O)NCc3cc4c(cn3)CCN(c3cncc(N5CCOCC5)n3)C4)cc21` [Compound 314] the value was 83%; for `COCCN1CCN(c2cccc(-c3ccc4cnc(CNC(=O)c5ccc6c(c5)[C@](C)(C#N)COC6)cc4n3)n2)CC1` [Compound 132], 71%.
For the compound `C[C@@]1(F)COCc2ccc(C(=O)NCc3cc4nc(-c5ccc(=O)n(C6CC6)n5)ccc4cn3)cc21` [Compound 233], the Emax is 74%.
Same read-out and setting: for `C[C@@]1(CO)COCc2ccc(C(=O)NCc3cc4nc(-c5ccccc5)sc4cn3)cc21` [Compound 115] the value was 19%; for `Cn1ncc2ccc(-c3ccc4cnc(CNC(=O)c5ccc6c(c5)[C@](C)(C#N)COC6)cc4n3)cc2c1=O` [Compound 448], 93%.
